Results published in article PMC6600263, “Neuroprotective Effects of Red Ginseng Saponins in Scopolamine-Treated Rats and Activity Screening Based on Pharmacokinetics” (Molecules, 2019).
Like-named read-outs stand apart in the source and are kept apart here.

Assay: pharmacokinetics of 16 ginsenosides in rat plasma after oral administration of RGS
Assay type: in vivo
Conditions: for Cmax / MRT / half-life / Tmax / C Max / T1/2 / T Max: SD, rat, po, 100 mg/kg
Method: The SD rats were randomly allocated into two groups, i.e., normal group and SA-treated group.
Blood samples were collected from the postocular vein at 0.083, 0.25, 0.5, 1, 2, 3, 4, 6, 8, 12 and 24 h after SA injection. Blood sample immediately was centrifuged at 18,000 rpm for 10 min. Plasma was withdrawn (0.15 mL) and diluted with 0.3 mL of acetonitrile and 20 µL of the IS (6 µg/mL). After 30 min, the mixture was clarified by centrifugation at 18,000 rpm for 10 min at 4 °C. The supernatant was dried under a stream of N2, and the residue was dissolved in 0.1 mL of methanol and stored at −20 °C for further analysis.
The UPLC-MS/MS system (Waters Xeve TQ, Waters, Cork, Ireland) with a column C18 (ACQUITY, 1.7 μm, 2.1 × 50 mm, Waters, Cork, Ireland) were adopted at 35 °C. Water (A) and acetonitrile (B) were used as mobile phases at a flow rate of 0.4 mL/min. The treatment of elution was performed according to following pattern: 10% B for 0–5.0 min; 10→15% B for 5.0–8.0 min; 15→25% B for 8.0–12.0 min; 25→40% for 12.0–20.0 min; 40→50% B for 20.0–25.0 min; 50→65% B for 25.0–30.0 min. With regard to mass detection, the negative mode of electrospray ionization source was adopted. The optimized parameters of multiple reactions monitoring (MRM) system including collision energy, Q1 Pre Bias, Q3 Pre Bias, collision energy and MRM transition of the 16 ginsenosides are shown in Table 1.
Based on a non-compartmental method, WinNonlin software (Phoenix, version 6.1) was employed to calculate the pharmacokinetic parameters. The statistical difference between groups was analyzed by One-Way ANOVA analysis using SPSS Version 17.0. (SPSS Inc., Chicago, IL, USA). The difference between groups was regarded significant when p < 0.05. We first normalized the pharmacokinetic data and then visualized them based on principal component analysis (PCA).

[1] = in vivo, model (scopolamine 1 mg/kg i.p.-treated) rats, oral RGS single dose 100 mg/kg, plasma, mean ± S.D., n = 5, read-out: C Max
[2] = in vivo, model (scopolamine 1 mg/kg i.p.-treated) rats, oral RGS single dose 100 mg/kg, plasma, mean ± S.D., n = 5, read-out: MRT
[3] = in vivo, model (scopolamine 1 mg/kg i.p.-treated) rats, oral RGS single dose 100 mg/kg, plasma, mean ± S.D., n = 5, read-out: T1/2 (converted)
[4] = in vivo, model (scopolamine 1 mg/kg i.p.-treated) rats, oral RGS single dose 100 mg/kg, plasma, mean ± S.D., n = 5, read-out: T Max
[5] = in vivo, normal rats, oral RGS single dose 100 mg/kg, plasma, mean ± S.D., n = 5, read-out: C Max
[6] = in vivo, normal rats, oral RGS single dose 100 mg/kg, plasma, mean ± S.D., n = 5, read-out: MRT
[7] = in vivo, normal rats, oral RGS single dose 100 mg/kg, plasma, mean ± S.D., n = 5, read-out: T1/2 (converted)
[8] = in vivo, normal rats, oral RGS single dose 100 mg/kg, plasma, mean ± S.D., n = 5, read-out: T Max
[9] = model (scopolamine 1 mg/kg i.p.-treated) rats, oral RGS single dose 100 mg/kg, plasma, mean ± S.D., n = 5
[10] = normal rats, oral RGS single dose 100 mg/kg, plasma, mean ± S.D., n = 5
[11] = plasma, model (scopolamine 1 mg/kg i.p.-treated) rats, oral RGS single dose 100 mg/kg, plasma, mean ± S.D., n = 5, read-out: C Max
[12] = plasma, model (scopolamine 1 mg/kg i.p.-treated) rats, oral RGS single dose 100 mg/kg, plasma, mean ± S.D., n = 5, read-out: MRT
[13] = plasma, model (scopolamine 1 mg/kg i.p.-treated) rats, oral RGS single dose 100 mg/kg, plasma, mean ± S.D., n = 5, read-out: T1/2 (converted)
[14] = plasma, model (scopolamine 1 mg/kg i.p.-treated) rats, oral RGS single dose 100 mg/kg, plasma, mean ± S.D., n = 5, read-out: T Max
[15] = plasma, normal rats, oral RGS single dose 100 mg/kg, plasma, mean ± S.D., n = 5, read-out: C Max
[16] = plasma, normal rats, oral RGS single dose 100 mg/kg, plasma, mean ± S.D., n = 5, read-out: MRT
[17] = plasma, normal rats, oral RGS single dose 100 mg/kg, plasma, mean ± S.D., n = 5, read-out: T1/2 (converted)
[18] = plasma, normal rats, oral RGS single dose 100 mg/kg, plasma, mean ± S.D., n = 5, read-out: T Max

CC(C)=CCCC(C)(O)C1CCC2(C)C1C(O)CC1C3(C)CCC(O)C(C)(C)C3C(OC3OC(CO)C(O)C(O)C3O)CC12C (stereo not shown) [Rh1]
Cmax [1]: 46.9 ± 7.8 ng/g | MRT [2]: 11.2 ± 2 h | half-life [3]: 8.9 ± 2.1 h | Tmax [4]: 1.5 ± 0.3 h | Cmax [5]: 41.2 ± 4.6 ng/g | MRT [6]: 9.6 ± 2.1 h | half-life [7]: 9.8 ± 2.5 h | Tmax [8]: 1 ± 0.5 h | AUC 0-t [9]: 278.6 ± 12.8 ng·h/g | AUC 0-t [10]: 215.5 ± 12.1 ng·h/g

CC(C)=CCCC(C)(OC1OC(CO)C(O)C(O)C1O)C1CCC2(C)C1C(O)CC1C3(C)CCC(O)C(C)(C)C3C(OC3OC(CO)C(O)C(O)C3OC3OC(C)C(O)C(O)C3O)CC12C (stereo not shown) [Re]
Cmax [11]: 24.9 ± 6.9 ng/g | MRT [12]: 8.6 ± 1.1 h | half-life [13]: 11.3 ± 2.9 h | Tmax [14]: 0.5 ± 0.1 h | Cmax [15]: 25.6 ± 2.6 ng/g | MRT [16]: 9.6 ± 1.2 h | half-life [17]: 12.3 ± 2.6 h | Tmax [18]: 0.5 ± 0.4 h | AUC 0-t [9]: 298.6 ± 21.2 ng·h/g | AUC 0-t [10]: 278.3 ± 9.1 ng·h/g

CC(C)=CCCC(C)(O)C1CCC2(C)C1C(O)CC1C3(C)CCC(OC4OC(CO)C(O)C(O)C4OC4OC(CO)C(O)C(O)C4O)C(C)(C)C3CCC12C (stereo not shown) [Rg3]
C Max (in vivo): 32.3 ± 4.6 ng/g | MRT (in vivo): 22.5 ± 2.1 h | T1/2 (in vivo): 19.8 ± 1.5 h | Cmax (in vivo, C Max): 29.6 ± 5.9 ng/g | MRT (in vivo, MRT): 24.3 ± 1.2 h | half-life (in vivo, T1/2): 21.3 ± 2.2 h

C=C(CCC=C(C)C)C1CCC2(C)C1C(O)CC1C3(C)CCC(OC4OC(CO)C(O)C(O)C4OC4OC(CO)C(O)C(O)C4O)C(C)(C)C3CCC12C (stereo not shown) [Rk1]
Cmax [11]: 50.1 ± 3.7 ng/g | MRT [12]: 26.8 ± 2.5 h | half-life [13]: 29.3 ± 2.1 h | Tmax [14]: 6 ± 0.8 h | Cmax [15]: 32.1 ± 5.9 ng/g | MRT [16]: 21.3 ± 1.8 h | half-life [17]: 18.1 ± 9.8 h | Tmax [18]: 6 ± 0.9 h | AUC 0-t [9]: 736.8 ± 17.7 ng·h/g | AUC 0-t [10]: 556.8 ± 13.4 ng·h/g

CC(C)=CCC=C(C)C1CCC2(C)C1C(O)CC1C3(C)CCC(O)C(C)(C)C3C(OC3OC(CO)C(O)C(O)C3O)CC12C (stereo not shown) [Rh4]
C Max (in vivo): 38.7 ± 4.8 ng/g | MRT (in vivo): 12.3 ± 2.0 h | T1/2 (in vivo): 9.9 ± 2.1 h | Cmax (in vivo, C Max): 35.6 ± 3.6 ng/g | MRT (in vivo, MRT): 11.2 ± 2.1 h | half-life (in vivo, T1/2): 8.8 ± 1.5 h | Tmax (in vivo, T Max): 4 ± 0.5 h

C=C(CCC=C(C)C)C1CCC2(C)C1C(O)CC1C3(C)CCC(O)C(C)(C)C3C(OC3OC(CO)C(O)C(O)C3O)CC12C (stereo not shown) [Rk3]
C Max (in vivo): 16.6 ± 2.8 ng/g | MRT (in vivo): 8.9 ± 1.8 h | T1/2 (in vivo): 6.9 ± 2.1 h | T Max (in vivo): 1.5 ± 0.5 h | Cmax (in vivo, C Max): 14.2 ± 3.9 ng/g | MRT (in vivo, MRT): 9.6 ± 1.5 h | half-life (in vivo, T1/2): 6.5 ± 0.9 h | Tmax (in vivo, T Max): 1 ± 0.2 h

CC(C)=CCC=C(C)C1CCC2(C)C1C(O)CC1C3(C)CCC(OC4OC(CO)C(O)C(O)C4O)C(C)(C)C3CCC12C (stereo not shown) [Rh3]
C Max (in vivo): 37.6 ± 4.8 ng/g | MRT (in vivo): 19.8 ± 2.8 h | T1/2 (in vivo): 13.6 ± 3.1 h | T Max (in vivo): 10.2 ± 1.5 h | Cmax (in vivo, C Max): 24.3 ± 3.9 ng/g | MRT (in vivo, MRT): 15.6 ± 3.5 h | half-life (in vivo, T1/2): 12.6 ± 3.2 h | Tmax (in vivo, T Max): 14.4 ± 1.2 h

CC(C)=CCCC(C)(O)C1CCC2(C)C1C(O)CC1C3(C)CCC(O)C(C)(C)C3C(OC3OC(CO)C(O)C(O)C3OC3OC(CO)C(O)C(O)C3O)CC12C (stereo not shown) [Rf]
C Max (in vivo): 18.8 ± 2.6 ng/g | MRT (in vivo): 7.4 ± 1.3 h | T1/2 (in vivo): 7.5 ± 1.5 h | Cmax (in vivo, C Max): 17.6 ± 5.9 ng/g | MRT (in vivo, MRT): 6.5 ± 1.2 h | half-life (in vivo, T1/2): 6.6 ± 1.2 h | Tmax (in vivo, T Max): 2 ± 0.6 h

CC(C)=CCCC(C)(OC1OC(COC2OCC(O)C(O)C2O)C(O)C(O)C1O)C1CCC2(C)C1C(O)CC1C3(C)CCC(OC4OC(CO)C(O)C(O)C4OC4OC(CO)C(O)C(O)C4O)C(C)(C)C3CCC12C (stereo not shown) [Rb2]
Cmax [11]: 17.2 ± 2.1 ng/g | MRT [12]: 7.9 ± 1.2 h | half-life [13]: 6.9 ± 1.2 h | Tmax [14]: 1.5 ± 0.2 h | Cmax [15]: 18.5 ± 2.5 ng/g | MRT [16]: 8.6 ± 2.1 h | half-life [17]: 6.5 ± 1.5 h | Tmax [18]: 1.5 ± 0.2 h | AUC 0-t [9]: 90.3 ± 8.2 ng·h/g | AUC 0-t [10]: 89.6 ± 9.3 ng·h/g

CC(C)=CCC=C(C)C1CCC2(C)C1C(O)CC1C3(C)CCC(OC4OC(CO)C(O)C(O)C4OC4OC(CO)C(O)C(O)C4O)C(C)(C)C3CCC12C (stereo not shown) [Rg5]
Cmax [11]: 37.3 ± 2.8 ng/g | MRT [12]: 25.6 ± 2.6 h | half-life [13]: 27.3 ± 3.6 h | Tmax [14]: 8 ± 1.6 h | Cmax [15]: 34.4 ± 2.6 ng/g | MRT [16]: 22.2 ± 1.4 h | half-life [17]: 17.1 ± 2.5 h | Tmax [18]: 4 ± 1.8 h | AUC 0-t [9]: 569.8 ± 10.2 ng·h/g | AUC 0-t [10]: 415.6 ± 20.1 ng·h/g

CC(C)=CCCC(C)(O)C1CCC2(C)C1C(O)CC1C3(C)CCC(OC4OC(CO)C(O)C(O)C4O)C(C)(C)C3CCC12C (stereo not shown) [Rh2]
Cmax [1]: 30.2 ± 4.8 ng/g | MRT [2]: 11.8 ± 2 h | half-life [3]: 7.6 ± 2.1 h | Tmax [4]: 2 ± 0.3 h | Cmax [5]: 26.9 ± 2.6 ng/g | MRT [6]: 12.3 ± 2.1 h | half-life [7]: 9.8 ± 2.5 h | Tmax [8]: 2 ± 0.5 h | AUC 0-t [9]: 369.8 ± 8.0 ng·h/g | AUC 0-t [10]: 356.8 ± 12.8 ng·h/g

CC(C)=CCCC(C)(OC1OC(COC2OC(CO)C(O)C2O)C(O)C(O)C1O)C1CCC2(C)C1C(O)CC1C3(C)CCC(OC4OC(CO)C(O)C(O)C4OC4OC(CO)C(O)C(O)C4O)C(C)(C)C3CCC12C (stereo not shown) [Rc]
Cmax [11]: 21 ± 4.8 ng/g | MRT [12]: 8.9 ± 2.2 h | half-life [13]: 7.9 ± 3.1 h | Tmax [14]: 1.5 ± 0.5 h | Cmax [15]: 19.1 ± 2.9 ng/g | MRT [16]: 9.6 ± 1.5 h | half-life [17]: 8.9 ± 3.2 h | Tmax [18]: 1.5 ± 3.2 h | AUC 0-t [9]: 109.8 ± 10.2 ng·h/g | AUC 0-t [10]: 102.3 ± 20.2 ng·h/g
